# Laboratory results taken from patent US11253592B2, “Water-soluble compounds with aggregation-induced emission characteristics” (THE HONG KONG UNIVERSITY OF SCIENCE AND TECHNOLOGY, priority 2017, dated 2022).
# Columns and labels:
# HeLa cells [1] = test: Photostability under continuous laser irradiation in stained cells; format: cell-based; settings: 15 min continuous laser irradiation, λex 488 nm
# Protocol: For photostability studies, TTVP-labelled HeLa cells were imaged by a confocal microscope (Zeiss laser scanning confocal microscope LSM7 DUO) using ZEN 2009 software (Carl Zeiss). Conditions: for TTVP, excitation wavelength: 488 nm; for DiO, excitation wavelength: 488 nm (5% laser power).
# The specificity of TTVP to plasma membrane was evaluated by co-staining with DiO, which is a commercially available bioprobe for plasma membrane. In this co-localization experiment, after incubating HeLa cells with DiO for 10 min, TTVP was added into the culture followed by culture shaking for a few seconds at room temperature. In order to accommodate the staining protocol of DiO, postwashing after cell staining was carried out. As shown in FIGS. 9A-9H, TTVP can selectively accumulate in the plasma membrane and emit strong red fluorescence. The well-merged images of TTVP and DiO indicate the high specificity of the compounds to the plasma membrane, and the Pearson's correlation coefficient is determined to be 89%. To assess the photostability of TTVP and DiO, continuous excitation and sequential scanning with confocal microscope were utilized.
# [2] = tested on: plasma membrane of living HeLa cells; test: Plasma membrane cell imaging by confocal microscopy; format: cell-based
# Protocol: (§1) For cell imaging, cells were grown in a 35 mm Petri dish with a coverslip at 37° C. The live cells were incubated with a certain dye at a certain concentration for a certain time. After adding TTVP (500 nM), the Petri dish was shaken for a few seconds at room temperature, then the coverslip was removed. The TTVP-labelled cells were mounted and imaged using a laser scanning confocal microscope (LSM7 DUO) at 512 nm with 5% laser power (the scanning rate was 22.4 s per frame). The emission filter was 600-744 nm.
# As a water-soluble NIR-emissive AIEgen, TTVP maintains an “off” state in an aqueous environment. As such, TTVP can serve as a “light-up” probe for bioimaging with minimal background interference from both free dyes and bio-substrate autofluorescence. In preliminary bioimaging experiments, cell imaging studies were conducted using HeLa cells as a cell model, and incubating 500 nM of TTVP for 10 min. […] The influence of incubation period was then investigated by utilizing a wash-free procedure with different staining times. […] The plasma membrane-staining ability of TTVP can be mainly attributed to its good hydrophilicity, which impedes the permeation of TTVP passing through the hydrophobic region of phospholipid bilayers. It is believed that the emitting moiety of TTVP is embedded within the hydrophobic region with low polarity, evidently giving fluorescent emission upon irradiation according to the restriction of intramolecular motions (RIM) mechanism of the AIE process (FIG. 6G). […] Additionally, ultrafast staining could result from the excellent monodispersity of TTVP in culture media of cells.
# [3] = Photophysical (optical) properties of TTVP; format: physicochemical
# Protocol: H spectra were measured on Bruker ARX 400 NMR spectrometers using CD3OD as the deuterated solvent. High-resolution mass spectra (HRMS) were recorded on a Finnegan MAT TSQ 7000 Mass Spectrometer System operating in a MALDI-TOF mode. UV absorption spectra were taken on a Milton Ray Spectronic 3000 array spectrophotometer. Steady-state fluorescence spectra were recorded on a Perkin Elmer LS 55 spectrometer. Fluorescence images were collected on Olympus BX 41 fluorescence microscope. Laser confocal scanning microscope images were collected on Zeiss laser scanning confocal microscope (LSM7 DUO) and analyzed using ZEN 2009 software (Carl Zeiss).
# (§2) TTVP benefits from its positively charged amine and pyridinium salt having hydrophilic characteristic, as well as the small size of the hydrophobic moiety. […] The relatively long absorption wavelength can be attributed to its small HOMO-LOMO energy gap, which is caused by the strong electron donating-accepting interaction of the emitting center (FIGS. 3A-3C).
# (§3) Dynamic light scattering analysis (DLS) and transmission electron microscope (TEM) measurements were performed to confirm the formation of aggregates upon the addition of THF into the TTVP aqueous solution. […] In the solid state, TTVP emitted at 705 nm with 2.7% of quantum yield and 0.92 ns of lifetime (FIGS. 4-5, Table 1).
# HeLa cells [4] = test: Flow cytometry Annexin V-FITC/PI double staining for apoptosis and necrosis; format: cell-based; settings: 500 nM
# Protocol: Effective ROS generation of the present compounds in PDT applications was quantitatively evaluated on HeLa cells by a standard MTT assay. A dose-dependent toxicity was determined in both the absence and presence of white light irradiation. […] In comparison, HeLa cells retained 90% viability when they were incubated with 1 μM of TTVP in dark conditions. Furthermore, flow cytometric analysis using Annexin V-FITC/propidium iodide (PI) double staining was utilized to determine cell apoptosis (FIGS. 11C and 11D). […] It is worth noting that continuous light irradiation with strong power (around 18.5 times higher than that for cell imaging depicted in FIGS. 6A-6H and FIGS. 8A-8H) led to some changes of cells, for instance, TTVP can gradually enter the cells (FIGS. 11E-11I); the cell membrane morphology changed, and the formation of blebs on the plasma membrane was clearly observed, which is a sign of cell death. Those changes can be attributed to the fact that the ROS generated from TTVP considerably disrupts the rigidity and permeability of plasma membrane, and induces cancer cell death. FIGS. 12A, 12B, 12C, 12D, and 12E depict bright-field confocal images of HeLa cell stained with TTVP upon the increase of irradiation time. λex: 488 nm (20% laser power, 0.925 μW).
# HeLa cells [5] = test: MTT cytotoxicity under white light irradiation (PDT); format: cell-based; settings: white light irradiation (around 10 mW) 10 min
# Protocol: For cytotoxicity studies relating to cytotoxicity of the present compounds to cancer cells under light irradiation, HeLa cells were seeded in 96-well plates (Costar, IL, USA) at a density of 6000-8000 cells/well. After overnight culturing, medium in each well were replaced by 100 μL fresh medium containing different concentrations of TTVP. After incubation for 3 s, plates containing HeLa cells were exposed to white light (around 10 mW) for 10 min, and another array of plates with cells were kept in dark as control. Then the plates were subjected to the same treatment as the biocompatibility test.
# (§4) Effective ROS generation of the present compounds in PDT applications was quantitatively evaluated on HeLa cells by a standard MTT assay. A dose-dependent toxicity was determined in both the absence and presence of white light irradiation. […] In comparison, HeLa cells retained 90% viability when they were incubated with 1 μM of TTVP in dark conditions. Furthermore, flow cytometric analysis using Annexin V-FITC/propidium iodide (PI) double staining was utilized to determine cell apoptosis (FIGS. 11C and 11D). […]
# [6] = DLS analysis of nanoaggregates in water/THF; format: physicochemical; settings: suspension with 90% fraction of THF
# Protocol: as §3
# [7] = ROS generation with H2DCF-DA indicator under white light; settings: 10 μM TTVP, 5 μM H2DCF-DA in PBS, white light 10 mW, within 60 s
# From the text: The strong absorption of TTVP in the visible light region permits utilization of visible light as the excitation light source for PDT processes. Visible light causes less damage to biological systems than UV light. The ROS generation efficiency of TTVP was initially determined by the use of H2DCF-DA as an indicator, which emits fluorescence with a “turn on” process triggered by ROS. As depicted in FIG. 11A, TTVP or H2DCF-DA alone was non-emissive or weekly emissive, and each fluorescence intensity remained almost constant within 60 s white light irradiation. […] The efficient ROS generation of TTVP could be attributed to both its small singlet-triplet energy gap (0.47 eV) and excellent monodispersity. The former favors the improvement of the yield of the triplet excited state, and the latter can enlarge contact area between TTVP and oxygen.
# HeLa cells [8] = test: MTT cytotoxicity in dark conditions (biocompatibility); format: cell-based
# Protocol: For cytotoxicity studies relating to biocompatibility of the present compounds to Hela cells, MTT assays were used to evaluate the cytotoxicity of the presented AIEgens. Cells were seeded in 96-well plates (Costar, IL, USA) at a density of 6000-8000 cells/well. After overnight culturing, medium in each well were replaced by 100 μL fresh medium containing different concentrations of TTVP. 24 hours later, 10 μL MTT solution (5 mg/mL in PBS) was added into each well. After 4 hours of incubation, 100 μL SDS-HCl aqueous solution (10% SDS and 0.01 M HCl) was added to each well. After incubation for 4 hours, the absorption of each well at 595 nm was recorded via a plate reader (Perkin-Elmer Victor3™). Each trial was performed with 6 wells parallel.
# as §4
# HCC827 cells = test: Ultrafast wash-free plasma membrane imaging; format: cell-based; settings: 500 nM, around 3 s
# Protocol: as §1
# (§5) Encouraged by the distinct advantages of TTVP for membrane-specific imaging, this ultrafast staining and wash-free cellular imaging protocol was further employed for staining other cell lines, including 293T, HCC827, HCT116, and MDCK2.
# 293T cells = test: Ultrafast wash-free plasma membrane imaging; format: cell-based; settings: 500 nM, around 3 s
# Protocol: as §1, §5
# MDCK2 cells = test: Ultrafast wash-free plasma membrane imaging; format: cell-based; settings: 500 nM, around 3 s
# Protocol: as §1, §5
# HCT116 cells = test: Ultrafast wash-free plasma membrane imaging; format: cell-based; settings: 500 nM, around 3 s
# Protocol: as §1, §5
# Water solubility = format: physicochemical
# From the text: as §2
compound,measurement,setting,value
"CCCCCCCCCCCCCCCCCCN1/C(=C\C=C\c2oc3ccccc3[n+]2CCCCCCCCCCCCCCCCCC)Oc2ccccc21.[O-][Cl+3]([O-])([O-])[O-] [DiO, reference compound]",change of emission intensity on irradiation (photostability),HeLa cells [1],fluorescence loss of DiO was very obvious
C[N+](C)(C)CCC[n+]1ccc(/C=C/c2ccc(-c3ccc(N(c4ccccc4)c4ccccc4)cc3)s2)cc1 [TTVP],change of emission intensity on irradiation (photostability),HeLa cells [1],slightly decreased
same,plasma membrane visualization,"[2]; 500 nM, 10 min incubation, with or without washing",clearly visualized with excellent image contrast
same,plasma membrane staining,"[2]; 500 nM, shaking a few seconds at room temperature, wash-free",lit up significantly
same,cellular localization after long staining,"[2]; 500 nM, staining for 6 hours",A majority of TTVP entered the cells
same,plasma membrane visualization,"[2]; 500 nM, staining time 4 h",still be clearly visualized
same,maximum emission of stained living cells,[2]; living HeLa cells stained with TTVP,623 nm
same,"λem (nm) Aggr, maximum emission in aggregated state","[3]; aggregated state, water/THF mixture",708 nm
same,"ε, molar extinction coefficient","[3]; aqueous solution, at 515 nm",33517 M⁻¹ cm⁻¹
same,"λabs (nm), absorption maximum",[3]; aqueous solutions,515 nm
same,"λem (nm) Solid, emission maximum in solid state",[3]; solid state,705 nm
same,"τ, fluorescence lifetime","[3]; solid state, ambient conditions",0.92 ns
same,"ΦF, fluorescence quantum yield","[3]; solid state, calibrated integrating sphere",2.7%
same,cell necrosis on light irradiation,HeLa cells [4],caused cancer cell necrosis in a short period of time
same,cell death,HeLa cells [5]; 1 μM,almost complete cell death
same,viability at 0.5 µM,"HeLa cells [5]; Homo sapiens, HeLa, light or radiation study, 10 min, 500 nM, read-out: cell viability",15%
same,average hydrodynamic diameter of nanoaggregates,[6],around 43 nm
same,polydispersity index,[6],0.13
same,enhancement of H2DCF-DA emission intensity (ROS generation),[7],87 fold
same,cytotoxicity in dark conditions,HeLa cells [8],low cytotoxicity
same,cell viability,HeLa cells [8]; 1 μM,90%
same,plasma membrane visualization,HCC827 cells,clearly visualized
same,plasma membrane visualization,293T cells,clearly visualized
same,plasma membrane visualization,MDCK2 cells,clearly visualized
same,plasma membrane visualization,HCT116 cells,clearly visualized
same,water solubility,Water solubility,good water solubility
